Measurements as given in patent US7265259B2, “GSK-3β expressed in a transgenic mouse” (Consejo Superior de Investigaciones Clentificas, priority 2000, dated 2007).

Tested on: Tet/GSK-3β mice
Experiment: Genotype frequency of double transgenic mice after prenatal doxycycline treatment (perinatal lethality)
Format: in vivo, mouse
Conditions: 14% without treatment, 25% expected
Text: Tet/GSK-3B mice were viable and fertile and appeared normal without pharmacological intervention to suppress transgene expression. This seemed to contradict the previously postulated toxicity of increased GSK-3β expression in brain (Brownlees et al., 1997). […] The Tet/GSK-3β mice were underrepresented (14%, n=401). This might be indicative of lethality due to embryonic overexpression of GSK-3β in Tet/GSK-3β mice.
We had previously observed perinatal transgene expression and lethality in our CamKIIα-tTA driven animal model of Huntington's disease (HD94) (Yamamoto et al., 2000). In the case of HD94 mice, if pregnant mice are given the tetracycline analog doxycycline (2 mg/ml) in the drinking water ad libitum from E15 to birth, only postnatal transgenic expression takes place and the frequency of the four expected genotypes is restored to 25%. We thus decided to apply the same program of perinatal doxycycline treatment to the Tet/GSK-3B mice. […] As expected, prenatal doxycycline treatment normalized to 25% the frequency of Tet/GSK-3β mice and thus, to maximize yield of double transgenic mice in litters, the perinatal doxycycline treatment was routinely employed.

C[C@H]1c2cccc(O)c2C(=O)C2=C(O)[C@]3(O)C(=O)C(C(N)=O)=C(O)[C@@H](N(C)C)[C@@H]3[C@@H](O)[C@@H]21 [doxycycline]
frequency of Tet/GSK-3β mice: 25%
